For series [1], the system named is Arthrospira platensis (CCMP1295). The series is described as follows: Toxicology assay over 72 hours (BS EN ISO 10253:2006), reduction in specific growth rate. Type of series: cell-based. How it is done: Toxicology assays and EC50 calculations for copper were performed on Arthrospira platensis (CCMP1295). Assessments were performed under aseptic conditions in 2 stages through an initial range-finding assay (data not shown) using CuSO4 solutions to detect the region of the EC50, followed by a final toxicology assay over 72 hours following British Standard BS EN ISO 10253:2006 [15] with ECso determination where inhibition is measured as a reduction in specific growth rate, relative to control cultures grown under identical conditions. Visual analysis was also performed to assess the effects of metal toxicity on morphology. Statistical analysis was performed using GraphPad Prism 5 Non-linear transform log(agonist) vs. response—variable response function.
FIGS. 4A and 4B show the results of the toxicity assay using A. platensis. EC50 of Cu^2+ ions for A. platensis was calculated at 0.2976 (in the 95% CI range of 0.17-0.5208 mg/L with an R squared value of 0.8654).

The subject of series [2] is A. platensis. Kind of series: Micro-evolution exposure (60 days) with fluctuation analysis. Type of series: cell-based, Arthrospira platensis. From the text: The result from the fluctuation analysis after the selected period can explain the presence of resistant cells in two ways. Each result is interpreted as the independent consequence of two different phenomena of adaptation. In the first case, if resistant cells arose during the exposure to the selective agent (that is, by physiological adaptation), the variance in the number of cells per culture would be low because every cell is likely to have the same chance of developing resistance (set 1A; FIG. 3). Consequently, inter-culture (tube-to-tube) variation would be consistent with the Poisson model (that is, the variance of these replicate samples would be equal to the mean). By contrast, if resistant cells arose before the exposure to the selective agent (that is, genetic adaptation by rare spontaneous mutation occurring during the time in which the cultures grew from N0 to Nt), a high variation in the number of resistant cells per culture would be found (set 1B; FIG. 3). The tube-to-tube variation would not be consistent with the Poisson model (that is, variance>mean). Fluctuation analysis can likewise show the possibility of no adaptation if no resistant cells are observed after the incubation period in any of the experimental cultures. Since set 2 is the control of the experiment, variation is due only to random sampling and variation from tube to tube would be consistent with the Poisson model. […] If a similar variance: mean ratio between set 1 and set 2 is found, it confirms that resistant cells arose during the exposure to the selecting agent (that is, a post-selective mechanism).
FIG. 2 illustrates a typical outline of the micro-evolution process. The experiment was performed based on the method from Gonzalez et al., (2012). Following FIG. 2, the culture was cloned through the isolation of a single alga or cyanobacterium, to avoid the inclusion of previous spontaneous mutations, followed by growth. Cloning was performed through microdilution in microwell plates, where the culture was diluted to the culture density of 1 microbe (micro-organism, MO) per 200 μl, providing a single cell in each well (although if microalgae/cyanobacteria can grow on solid medium, isolation on medium agar can also be performed). Propagation of the cloned culture was performed from 200 μl in increasing volume flasks with foam stoppers in a constant temperature room 18° C.+/−1° C., average light intensity 2800 lux with 8:16 dark:light cycle.
10e2 MOs were then subcultured into 10 ml 40 vials (set 1), and cultures propagated further in vials and propagation flask (for set 2) (FIG. 3). Before exposure, controls ‘set 2’ were prepared through subculturing from flask into 20 vials. During the exposure stage, CuSO4 solution was added to the 60 vials of each concentration set to make-up the final concentrations of 0.3, 0.6, 1, 2 and 4 mg/Cu^2+ ions. Vials were stored under propagation conditions described above for a period of 60 days, with daily agitation, ensuring resistant cells could generate enough progeny to be detected. After the incubation period, fluctuation analysis was performed to identify those cultures which resistance arose through microevolution.

By EC50 is commonly meant the concentration giving half of the maximal effect. A lower EC50 goes with an effect from little substance. For the compound `O=S(=O)([O-])[O-].[Cu+2]` [Cu^2+ ions, CuSO4], in series [1] (1 mg/L Cu2+, after 24 hour), the “morphological changes (microscope)” value is given as “fragmentation of the trichomes”. This compound also displayed an EC50 in series [1] (72 hours, CuSO4 solutions, 95% CI 0.17-0.5208 mg/L, R squared 0.8654) of 0.2976 µg/mL. Also, the Outcome result is listed as “RSM” in series [2] (0.3 mg/L Cu^2+ ion concentration); “RSM” in series [2] (0.6 mg/L Cu^2+ ion concentration); “No adaptation” in series [2] (1 mg/L Cu^2+ ion concentration); “No adaptation” in series [2] (2 mg/L Cu^2+ ion concentration); “No adaptation” in series [2] (4 mg/L Cu^2+ ion concentration).

The values are drawn from patent US20150353982A1, “MICRO-EVOLUTION OF MICROBES” (priority 2012, published 2015).
